In one assay the test system is MCF-7 cells. Kind of assay: Breast Cancer Cell Viability Assays (MCF-7, CellTiter-Glo). The note with it: 5 days' compound exposure; for IC50: Homo sapiens, MCF7, 120 h. It counts as cell-based. The method, boiled down: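 Percent viability, background-subtracted against untreated wells, was taken from CellTiter-Glo luminescence after 5 days' exposure of MCF-7 cells. Compounds were tested at eleven semilog concentrations, final 0.3–0.000003 μM, in RPMI containing 10% FBS.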

The target of the next assay is T1, ER-α in MCF-7 cells (Homo sapiens, UniProt P03372).
T1 construct: endogenous in cells; host or cells: MCF-7
T1 sequence (P03372 1-595): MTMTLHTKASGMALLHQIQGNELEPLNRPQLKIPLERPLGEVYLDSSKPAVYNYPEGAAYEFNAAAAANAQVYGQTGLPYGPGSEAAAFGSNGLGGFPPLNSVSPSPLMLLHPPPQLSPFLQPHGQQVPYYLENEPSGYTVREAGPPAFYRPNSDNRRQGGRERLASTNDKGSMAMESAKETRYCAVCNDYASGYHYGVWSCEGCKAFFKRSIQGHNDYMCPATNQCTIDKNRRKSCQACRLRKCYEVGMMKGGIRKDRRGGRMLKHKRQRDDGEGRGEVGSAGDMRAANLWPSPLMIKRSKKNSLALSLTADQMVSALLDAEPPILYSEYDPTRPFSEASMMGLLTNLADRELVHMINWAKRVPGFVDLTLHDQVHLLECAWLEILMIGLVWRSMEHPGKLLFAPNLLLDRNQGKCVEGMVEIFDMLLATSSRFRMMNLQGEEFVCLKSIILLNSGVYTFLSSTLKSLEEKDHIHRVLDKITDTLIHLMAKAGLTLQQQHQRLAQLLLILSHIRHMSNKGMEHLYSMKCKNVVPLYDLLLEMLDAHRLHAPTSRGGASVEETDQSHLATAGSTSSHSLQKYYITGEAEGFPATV
The experiment in a line: Breast Cancer Cell ER-α In Cell Western Assay (SP1). The class given is cell-based. The note with it: 4 or 24 hr post compound addition; for Emax: MCF7, SP1 antibody, read-out: ER-α In Cell Western Assay (SP1) Max Response; for DC50: SP1 antibody, read-out: ER-α In Cell Western Assay (SP1) IC50. In a few lines: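 ER-α levels quantified by in-cell western: SP1 signal normalised to DRAQ5 DNA stain, relative to untreated cells (% ER). Compounds at 0.3–0.000003 μM final, 11-point semilog series, 4 or 24 h exposure of MCF-7 cells grown in charcoal-stripped serum.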

Take `N#Cc1cc(F)ccc1/C(=C(\c1ccc(/C=C/C(=O)O)cc1)c1ccc2[nH]nc(F)c2c1)C1CCC1` [Example 49, (E)-3-(4-((E)-2-(2-Cyano-4-fluorophenyl)-2-cyclobutyl-1-(3-fluoro-1H-indazol-5-yl)vinyl)phenyl)acrylic acid]: in the assay on MCF-7 cells, the “MCF7 Viability Assay Max Response” value was “++ (++ = a single % value ≧ 40%)” and the IC50 is at most 0.1 µM. Moreover, at ER-α in MCF-7 cells, the Emax is at least 40% and the DC50 was at most 0.1 µM.
Take `Cc1cc(C#N)ccc1/C(=C(\c1ccc(/C=C/C(=O)O)cc1)c1ccc2[nH]nc(F)c2c1)C1CCC1` [Example 50, (E)-3-(4-((E)-2-(4-Cyano-2-methylphenyl)-2-cyclobutyl-1-(3-fluoro-1H-indazol-5-yl)vinyl)phenyl)acrylic acid]: in the assay with MCF-7 cells, the “MCF7 Viability Assay Max Response” value is reported as “++ (++ = a single % value ≧ 40%)” and the IC50 is at most 0.1 µM. At ER-α in MCF-7 cells, the Emax is at least 40% and the DC50 is at most 0.1 µM.
Take `CS(=O)(=O)c1ccc(/C(=C(\c2ccc(/C=C/C(=O)O)cc2)c2ccc3[nH]nc(F)c3c2)C2CCC2)c(F)c1` [Example 51, (E)-3-(4-((E)-2-Cyclobutyl-1-(3-fluoro-1H-indazol-5-yl)-2-(2-fluoro-4-(methylsulfonyl)phenyl)vinyl)phenyl)acrylic acid]: in the assay on MCF-7 cells, the “MCF7 Viability Assay Max Response” value is listed as “++ (++ = a single % value ≧ 40%)” and the IC50 is at most 0.1 µM. On ER-α in MCF-7 cells, the Emax is at least 40% and the DC50 is at most 0.1 µM.
Regarding `O=C(O)/C=C/c1ccc(/C(=C(\c2ccncc2F)C2CCC2)c2ccc3[nH]nc(F)c3c2)cc1` [Example 52, (E)-3-(4-((E)-2-Cyclobutyl-1-(3-fluoro-1H-indazol-5-yl)-2-(3-fluoropyridin-4-yl)vinyl)phenyl)acrylic acid], in the assay on MCF-7 cells, the “MCF7 Viability Assay Max Response” value is listed as “++ (++ = a single % value ≧ 40%)” and the IC50 was at most 0.1 µM. Also, at ER-α in MCF-7 cells, the Emax was at least 40% and the DC50 was at most 0.1 µM.
With `N#Cc1ccc(/C(=C(\c2ccc(/C=C/C(=O)O)cc2)c2ccc3[nH]ncc3c2)C2CCC2)c(F)c1` [Example 53, (E)-3-(4-((E)-2-(4-Cyano-2-fluorophenyl)-2-cyclobutyl-1-(1H-indazol-5-yl)vinyl)phenyl)acrylic acid], in the assay with MCF-7 cells, the “MCF7 Viability Assay Max Response” value is given as “++ (++ = a single % value ≧ 40%)” and the IC50 was at most 0.1 µM. At ER-α in MCF-7 cells, the Emax is at least 40% and the DC50 was at most 0.1 µM.
Consider `N#Cc1cc(F)ccc1/C(=C(\c1ccc(/C=C/C(=O)O)cc1)c1ccc2[nH]ncc2c1)C1CCC1` [Example 54, (E)-3-(4-((E)-2-(2-Cyano-4-fluorophenyl)-2-cyclobutyl-1-(1H-indazol-5-yl)vinyl)phenyl)acrylic acid], for which, in the assay on MCF-7 cells, the “MCF7 Viability Assay Max Response” value was “++ (++ = a single % value ≧ 40%)” and the IC50 is at most 0.1 µM. On ER-α in MCF-7 cells, the Emax was at least 40% and the DC50 was at most 0.1 µM.
With `Cc1cc(C#N)ccc1/C(=C(\c1ccc(/C=C/C(=O)O)cc1)c1ccc2[nH]ncc2c1)C1CCC1` [Example 55, (E)-3-(4-((E)-2-(4-Cyano-2-methylphenyl)-2-cyclobutyl-1-(1H-indazol-5-yl)vinyl)phenyl)acrylic acid], in the assay on MCF-7 cells, the “MCF7 Viability Assay Max Response” value is listed as “++ (++ = a single % value ≧ 40%)” and the IC50 is at most 0.1 µM. On ER-α in MCF-7 cells, the Emax was at least 40% and the DC50 was at most 0.1 µM.
As to `CC/C(=C(/c1ccc(/C=C/C(=O)O)cc1)c1ccc2[nH]nc(F)c2c1)c1cccc(Oc2cncc(S(C)(=O)=O)n2)c1` [Example 56, (E)-3-(4-((E)-1-(3-Fluoro-1H-indazol-5-yl)-2-(3-((6-(methylsulfonyl)pyrazin-2-yl)oxy)phenyl)but-1-en-1-yl)phenyl)acrylic acid], in the assay with MCF-7 cells, the “MCF7 Viability Assay Max Response” value is reported as “++ (++ = a single % value ≧ 40%)” and the IC50 is above 0.1 µM. For the same compound, on ER-α in MCF-7 cells, the Emax was at least 40% and the DC50 was at most 0.1 µM.
Turning to `CC/C(=C(/c1ccc(/C=C/C(=O)O)cc1)c1ccc2[nH]nc(F)c2c1)c1cccc(Oc2cnc(S(C)(=O)=O)cn2)c1` [Example 57, (E)-3-(4-((E)-1-(3-Fluoro-1H-indazol-5-yl)-2-(3-((5-(methylsulfonyl)pyrazin-2-yl)oxy)phenyl)but-1-en-1-yl)phenyl)acrylic acid], in the assay with MCF-7 cells, the “MCF7 Viability Assay Max Response” value was “++ (++ = a single % value ≧ 40%)” and the IC50 is at most 0.1 µM. Besides, at ER-α in MCF-7 cells, the Emax was at least 40% and the DC50 was at most 0.1 µM.
As to `CC/C(=C(/c1ccc(/C=C/C(=O)O)cc1)c1ccc2[nH]nc(F)c2c1)c1ccc(Oc2cncc(S(C)(=O)=O)n2)cc1` [Example 58, (E)-3-(4-((E)-1-(3-Fluoro-1H-indazol-5-yl)-2-(4-((6-(methylsulfonyl)pyrazin-2-yl)oxy)phenyl)but-1-en-1-yl)phenyl)acrylic acid], in the assay with MCF-7 cells, the “MCF7 Viability Assay Max Response” value was “++ (++ = a single % value ≧ 40%)” and the IC50 is above 0.1 µM. Also, at ER-α in MCF-7 cells, the Emax was at least 40% and the DC50 is above 0.1 µM.
For `CC/C(=C(/c1ccc(/C=C/C(=O)O)cc1)c1ccc2[nH]nc(F)c2c1)c1ccc(Oc2cnc(S(C)(=O)=O)cn2)cc1` [Example 59, (E)-3-(4-((E)-1-(3-Fluoro-1H-indazol-5-yl)-2-(4-((5-(methylsulfonyl)pyrazin-2-yl)oxy)phenyl)but-1-en-1-yl)phenyl)acrylic acid], in the assay on MCF-7 cells, the “MCF7 Viability Assay Max Response” value was “++ (++ = a single % value ≧ 40%)” and the IC50 is at most 0.1 µM. Besides, at ER-α in MCF-7 cells, the Emax was at least 40% and the DC50 is at most 0.1 µM.
In the case of `N#Cc1ccc(/C(=C(\c2ccc(/C=C/C(=O)O)cc2)c2ccc3[nH]ncc3c2F)C2CCC2)c(F)c1` [Example 60, (E)-3-(4-((E)-2-(4-Cyano-2-fluorophenyl)-2-cycobutyl-1-(4-fluoro-1H-indazol-5-yl)vinyl)phenyl)acrylic acid], in the assay on MCF-7 cells, the “MCF7 Viability Assay Max Response” value is on record as “++ (++ = a single % value ≧ 40%)” and the IC50 was at most 0.1 µM. At ER-α in MCF-7 cells, the Emax was at least 40% and the DC50 is at most 0.1 µM.
On to `N#Cc1cc(Cl)ccc1/C(=C(\c1ccc(/C=C/C(=O)O)cc1)c1ccc2[nH]ncc2c1F)C1CCC1` [Example 61, (E)-3-(4-((E)-2-(4-Chloro-2-cyanophenyl)-2-cyclobutyl-1-(4-fluoro-1H-indazol-5-yl)vinyl)phenyl)acrylic acid], for which, in the assay with MCF-7 cells, the “MCF7 Viability Assay Max Response” value is on record as “++ (++ = a single % value ≧ 40%)” and the IC50 was at most 0.1 µM. On ER-α in MCF-7 cells, the Emax is at least 40% and the DC50 was at most 0.1 µM.
For `N#Cc1ccc(/C(=C(\c2ccc(/C=C/C(=O)O)cc2)c2ccc3[nH]nc(F)c3c2)C2CCC2)c(C#N)c1` [Example 62, (E)-3-(4-((E)-2-Cyclobutyl-2-(2,4-dicyanophenyl)-1-(3-fluoro-1H-indazol-5-yl)vinyl)phenyl)acrylic acid], in the assay with MCF-7 cells, the “MCF7 Viability Assay Max Response” value is given as “++ (++ = a single % value ≧ 40%)” and the IC50 was at most 0.1 µM. At ER-α in MCF-7 cells, the Emax is at least 40% and the DC50 is at most 0.1 µM.
As for `CC/C(=C(/c1ccc(/C=C/C(=O)O)cc1)c1ccc2[nH]nc(F)c2c1)c1ccc(OC)cc1C` [Example 63, (E)-3-(4-((E)-1-(3-Fluoro-1H-indazol-5-yl)-2-(4-methoxy-2-methylphenyl)but-1-en-1-yl)phenyl)acrylic acid], in the assay with MCF-7 cells, the “MCF7 Viability Assay Max Response” value is “++ (++ = a single % value ≧ 40%)” and the IC50 was at most 0.1 µM. On ER-α in MCF-7 cells, the Emax is at least 40% and the DC50 was at most 0.1 µM.
In the case of `COc1ccc(/C(=C(\c2ccc(/C=C/C(=O)O)cc2)c2ccc3[nH]ncc3c2)C2CCC2)c(C)c1` [Example 64, (E)-3-(4-((E)-2-Cyclobutyl-1-(1H-indazol-5-yl)-2-(4-methoxy-2-methylphenyl)vinyl)phenyl)acrylic acid], in the assay on MCF-7 cells, the “MCF7 Viability Assay Max Response” value is “++ (++ = a single % value ≧ 40%)” and the IC50 is at most 0.1 µM. Also, at ER-α in MCF-7 cells, the Emax was at least 40% and the DC50 was at most 0.1 µM.
Take `COc1ccc(/C(=C(\c2ccc(/C=C/C(=O)O)cc2)c2ccc3[nH]nc(F)c3c2)C2CCC2)c(C)c1` [Example 65, (E)-3-(4-((E)-2-Cyclobutyl-1-(3-fluoro-1H-indazol-5-yl)-2-(4-methoxy-2-methylphenyl)vinyl)phenyl)acrylic acid]: in the assay with MCF-7 cells, the “MCF7 Viability Assay Max Response” value is given as “++ (++ = a single % value ≧ 40%)” and the IC50 is at most 0.1 µM. Moreover, at ER-α in MCF-7 cells, the Emax was at least 40% and the DC50 is at most 0.1 µM.

Values taken from patent US9499538B2, “Estrogen receptor modulators and uses thereof” (Seragon Pharmaceuticals, Inc., priority 2012, dated 2016).
